One assay relates to C. elegans AChE. Nature of the assay: Determination of IC50 of compounds to AChE (Ellman method, nematode homogenate). The settings on record: 2-h incubation at 37°C, mean ± SD, triplicates, read-out: IC50 of AChE inhibition. The assay is classed as biochemical. The method, then:
Third-instar juvenile stage samples of C. elegans were thoroughly ground using a glass homogenizer. The homogenate was then dissolved in PBS (pH 7.0, which contained 0.1% Triton X-100) using a suitable volume, followed by a 30-min centrifugation at 6000 r/min under 4°C to harvest supernatants to analyze the enzymes ([Ellman et al., 1961]; [Zhao et al., 2018]) [Nematode (3rd instar): 4000 individuals/mL].
After dissolving the eight compounds and chlorpyrifos in acetone, multiple dilutions were made to obtain test concentrations at 5 levels. Thereafter, the test solution of every level (4 µL) was blended with the enzyme solution (96 µL), followed by 2-h incubation at 37°C in a 96-well plate. The final concentrations of compounds were 29.25, 58.50, 117.00, 234.00, and 468.00 µg/mL, respectively. Thereafter, 1.5 mM acetylthiocholine iodide (ATCHI) (50 µL) was added for a further 0.5-h incubation at 37°C. The reaction was finally terminated by adding 0.3 mM 5,5′- dithiobis (2 - nitrobenzoic acid) (DTNB) (50 µL). Afterward, the residual activity of acetylcholinesterase was measured with a microplate reader at 405 nm. Corresponding treatments were then applied to different groups as given below:
The inhibition rate (%) was calculated follows:
I%=[1−(Treatment group−Compound control group)/(Substrate control group−PBS control group)]×100%
(In general: In Ellman's method for cholinesterases, released thiocholine reacts with DTNB.)

The test system of another assay is C. elegans. Nature of the assay: Toxic effects of compounds on C. elegans (lethality). It is filed as in vivo. The note with it: Caenorhabditis elegans, 48 h, mean ± SD, read-out: Lethality rate (%); for mortality at 500 µg/mL: compound 0.5 mg/mL. The method, then: In the toxicity analysis, 95 µL of the nematode solution (containing approximately 80 C. elegans) along with 5 µL of each compound was added to a 96-well plate. The final concentration of each compound was 0.5 mg/mL, and chlorpyrifos (20 µg/mL) was used as the positive control. The samples were mixed sufficiently, followed by 48-h incubation of plates under RT, and subsequently, the dead nematodes were counted to determine the lethality rate ([Roh and Choi, 2008]).

The target of another assay is nematode AChE. The assay is described as follows: Kinetic study on the inhibitory effect of AChE by compound (Lineweaver-Burk and Dixon plots). The assay is classed as biochemical, C. elegans. The procedure: This study prepared the enzyme solution at multiple gradients (0.125, 0.25, 0.5, and 1.0 U/mL). After adding compound 5 (29.25, 58.50, 117.00, 234.00, and 468.00 µg/mL), the mixed sample was then subjected to a 1-h incubation on a 96-well plate at 37°C (the buffer was used as a substitute for the control group). Later, 1.5 mM ATCHI (50 µL) was added and incubated for a 30-min period, followed by an addition of the 0.3 mM DTNB (50 µL). After 30 s, a microplate reader was utilized to record the OD value at 405 nm (five times at 1-min intervals). The change in the OD value every minute was used to calculate the reaction rate (ΔA/min). Later, the reaction rate curve, as a function of enzyme concentration, was plotted to compare reaction rates (v) among diverse test compound levels. Associations between diverse enzyme levels were utilized to evaluate the inhibitory effect of the compound on nematode AChE ([Xiong et al., 2016]).

Structures are written as SMILES. Several values for one entry are separate records, joined by “and”; a condition that tells them apart may be missing. Identical values can stand only once. Entries after “also recorded” stand apart in the source; their conditions may differ. Some results are limits rather than exact numbers.

One may read the IC50 as the point on the concentration scale where inhibition reaches its midpoint.

Consider `C=C(C(=O)OCC)[C@@H]1CC[C@@]2(C)CCCC(=C)[C@]2(O)C1` [Compound 2, laggeranine B], for which, in the assay on C. elegans AChE, the half-maximal inhibitory concentration (IC50) was < 710 µM and 701 µM. For the same compound, the mortality at 500 µg/mL in the assay with C. elegans was found to be 31.7 ± 0.72%.

In the case of `C=C(C(=O)O)[C@@H]1CC[C@@]2(C)CCCC(C)=C2C1` [Compound 4, isocostic acid], the IC50 with C. elegans AChE is < 530 µM and 528 µM. For the same compound, the mortality at 500 µg/mL in the assay on C. elegans was 30.8 ± 1.91%.

For `C=C(C(=O)O)[C@H]1C=C2[C@@H](C)CCC[C@]2(C)CC1` [Compound 3, eudesma-5,12-dien-13-oic acid], the IC50 in the assay on C. elegans AChE was 464 ± 10 µM. The mortality at 500 µg/mL with C. elegans was found to be 60.8 ± 2.6%.

Consider `C=C(C(=O)O)[C@@H]1CC[C@@]2(C)CCC[C@H](C)[C@]2(O)C1` [Compound 6, 5α-hydroxy-4α,15-dihydrocostic acid], for which, in the assay with C. elegans AChE, the half-inhibitory concentration (IC50) is 470 ± 15.6 µM. For the same compound, the mortality at 500 µg/mL in the assay with C. elegans came to 48.8 ± 2.5%.

For `CCOP(=S)(OCC)Oc1nc(Cl)c(Cl)cc1Cl` [Chlorpyrifos, chlorpyrifos, reference compound], the half-maximal inhibitory concentration (IC50) with C. elegans AChE was determined as 7.33 ± 0.58 µM. Further, the mortality at 20 µg/mL in the assay on C. elegans (positive control 20 µg/mL) stood at 81.7 ± 2.6%.

For `C=C1CCC[C@]2(C)CC[C@@H](C(=C)C(=O)O)CC12` (some centres unmarked) [Compound 5, costic acid], the half-inhibitory concentration (IC50) in the assay on C. elegans AChE was found to be 437 ± 8.33 µM. The “Ki (dissociation constant of the enzyme-inhibitor complex)” value on nematode AChE (Dixon plot, substrate 3 and 6 mM) is given as 24.668 µg/mL. For the same compound, the “type of AChE inhibition” value in the assay on nematode AChE (enzyme-concentration plot, Lineweaver-Burk and Dixon plots) is reported as “reversible inhibitor; also recorded: mixed-type competitive”. Moreover, the mortality at 500 µg/mL in the assay with C. elegans turned out to be 72.9 ± 3.15%.

For the compound `C=C(C(=O)O)[C@@H]1CC[C@@]2(C)CCCC(=C)[C@]2(O)C1` [Compound 7, 5α-hydroxycostic acid], the IC50 in the assay on C. elegans AChE was 485 ± 11.5 µM. Further, in the assay on C. elegans, the mortality at 500 µg/mL is 50.8 ± 1.91%.

For the compound `C=C(C(=O)O)C1CCC2=CC(O)CC(C)C2(C)C1` (centres unmarked) [Compound 1, laggeranine A], the IC50 with C. elegans AChE is < 530 µM and 518 µM. For the same compound, the mortality at 500 µg/mL with C. elegans was found to be 38.8 ± 2.5%.

As to `C=C(C(=O)O)[C@@H]1CC[C@@]2(C)CCC(=O)C(C)=C2C1` [Compound 8, 3-oxo-di-nor-eudesma-4-en-11-oic acid], the half-inhibitory concentration (IC50) in the assay with C. elegans AChE was < 710 µM and 697 µM. Besides, in the assay on C. elegans, the mortality at 500 µg/mL stood at 34.6 ± 1.44%.

The record behind these values is PMC9950556, “Acetylcholinesterase inhibitory activity of sesquiterpenoids isolated from Laggera pterodonta” (Frontiers in Plant Science, 2023).
